These results are taken from patent US6162459A, “Acyclovir transdermal delivery system” (priority 1997, dated 2000).

For series [1] the following is noted: used locally; cited from earlier work.
Series [2] deals with Varicella Zoster virus(VZV). The conditions noted are these: cited from earlier work.
The next series has as its system Epstein Barr virus(EBV). As to conditions: cited from earlier work.
Series [3] relates to HSV 1. As to conditions: cited from earlier work.
In the next series the test system is HSV. As to conditions: in vivo studies; cited from earlier work.
In a further series the test system is HSV 2. The conditions noted are these: cited from earlier work.
The test system of series [4] is HSV 1. As to conditions: cited from earlier work. This is another data set of the same source.
The test system of a further series is Cytomegalovirus(CMV). As to conditions: cited from earlier work.
For series [5] the following is noted: in vitro; cited from earlier work.
For series [6] the following is noted: in vivo; cited from earlier work.
The format of series [7] is physicochemical. An excerpt:
Since drugs are said to pass the skin through either polar pathways or norpolar pathways, it is instructive to examine the solubility parameters and lipophilic indices of such enhancers, the latter being calculated from the defermination of their k' values in the mobile phase of varying methanol concentrations of the HPLC method used.

“Also recorded” adds a separate entry of the source.

As for `O=c1[nH]c(=O)n([C@H]2C[C@H](O)[C@@H](CO)O2)cc1I` [IDU], the “toxicity” value in series [1] is “relatively low toxicities”.

On to `Nc1nc2c(ncn2COCCO)c(=O)[nH]1` [ACV, 9-[(2-Hydroxyethoxy)methyl]-guanine], for which the “activity against VZV” value in [2] is reported as “active”. The “activity against EBV” value in the series on Epstein Barr virus(EBV) is on record as “active against EBV, but only during the productive cycle”. For the same molecule, the “drug concentration in the skin, local vs oral” value with HSV 1 [3] (local application vs given orally) is 2-3 times lower. The “effect in the treatment of HSV 1, oral vs local” value in the series with HSV 1 [3] (oral administration vs local application) is “better with oral administration than with local application”. The “in vivo rating to treat HSV, comparison” value in the series with HSV is “better than FIAC(D17) and DHPG(D2); also recorded: better than bromovinyldeoxy uridine(D16) being effective against both HSV 1 and HSV 2”. Besides, the “activity against HSV 2” value in the series with HSV 2 is “active”. Also, in the series on HSV 1 [4], the “activity against HSV 1” value was “active; also recorded: especially HSV 1”. For the same molecule, the “activity against CMV” value in the series on Cytomegalovirus(CMV) is reported as “active”. Further, the “effectiveness against CMV, comparison” value in the series on Cytomegalovirus(CMV) (compared with DHPG, Idoxuridine, Trifluridine, or Ara-A, in some case) is “less effective against CMV as compared with DHPG, Idoxuridine, Trifluridine, orAra-A”.

Consider `CC1(C)[C@@H](O[C@H]2O[C@H](C(=O)O)[C@@H](O)[C@H](O)[C@H]2O[C@@H]2O[C@H](C(=O)O)[C@@H](O)[C@H](O)[C@H]2O)CC[C@]2(C)[C@H]3C(=O)C=C4[C@@H]5C[C@@](C)(C(=O)O)CC[C@]5(C)CC[C@@]4(C)[C@]3(C)CC[C@@H]12` [glycyrrhizin], for which, in [5], the “anti-inflammatory property” value is given as “anti-inflammatory property”. Also, the “effect against paw swelling” value in [6] is reported as “effective against paw swelling”.

With `CC1(C)CC[C@]2(C(=O)O)CC[C@]3(C)C(=CC[C@@H]4[C@@]5(C)CC[C@H](O)C(C)(C)[C@@H]5CC[C@]43C)[C@@H]2C1` [oleanolic acid], in series [7], the “polarity” value is on record as “opposite polarities”.
